Measured values published in patent US20070099839A1, “Inhibitors of cell migration” (CIT CANCER TARGETING TECHNOLOGIES, priority 2001, published 2007).
No end group written: not given here.

What was measured:
proMMP-8 (Homo sapiens) = tested on: T1, proMMP-8 (Homo sapiens); assay: Binding of GST-αM I domain to immobilised proMMP-8 with competitors; conditions: competitors 50 μM; FIG. 4D
T1 construct: GST-αM and GST-αL I domain fusion proteins were expressed and purified as described previously (30); made in house
T1 sequence (P11215 150-328 limits assumed): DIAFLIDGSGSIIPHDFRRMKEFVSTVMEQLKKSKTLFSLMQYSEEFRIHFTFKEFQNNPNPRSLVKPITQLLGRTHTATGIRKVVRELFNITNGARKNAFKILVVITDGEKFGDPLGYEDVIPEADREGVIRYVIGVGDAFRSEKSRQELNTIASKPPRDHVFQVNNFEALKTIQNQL
Procedure: (§1) (4D) Binding of GST-αM I domain to the immobilised proMMP-8, proMMP-9, ICAM-1, and fibrinogen was studied with ICAM-1, DDGW or KKGW (50 μM) as competitors. In control wells, GST was added instead of GST-αM I domain. The experiment was repeated three times with similar results.
(§2) ICAM-1, fibrinogen, proMMP-8, proMMP-9 or the recombinant domains (0.5 μg/well in PBS) were coated on plastic 96-well plates at +4° C. for 16 h and the wells were blocked with 3% bovine serum albumin (BSA) in PBS for 2 h at room temperature. Binding of the GST-αM I domain was determined essentially as described in the first priority application. In the reverse assay, GST-αM I domain was coated and binding of proMMP-9 was determined using the GE-213 antibody. Competitor peptides were preincubated with the αM I-domain for 20 minutes before the experiment.

proMMP-9 (Homo sapiens) = tested on: T2, proMMP-9 (Homo sapiens); assay: Binding of GST-αM I domain to immobilised proMMP-9 with competitors; conditions: competitors 50 μM; FIG. 4D
T2 construct: GST-αM and GST-αL I domain fusion proteins were expressed and purified as described previously (30); made in house
T2 sequence (P11215 150-328 limits assumed): as above
Procedure: as §1, §2

αM I domain = biological target: T3, αM I domain (Homo sapiens, UniProt P11215); assay: Binding of proMMP-9 to immobilized GST-αM I domain in the presence of competitor peptides (detected with GE-213 antibody); conditions: FIG. 4C
T3 construct: GST-αM and GST-αL I domain fusion proteins were expressed and purified as described previously (30); made in house
T3 sequence (P11215 150-328 limits assumed): as above
Procedure: (4C) Binding of proMMP-9 to the immobilized GST-αM I domain was studied in the presence of each peptide at the concentrations indicated. The binding was determined with the anti-MMP-9 antibody GE-213.
as §2

PMNs [1] = assay: PMN adhesion to immobilized proMMP-9 (phosphatase assay); assay type: cell-based, human; conditions: PMA-stimulated PMNs; peptide 50 μM, antibody 20 μg/ml; FIG. 5C
Procedure: FIG. 5A to 5D. Recognition of recombinant MMP-9 domains by αMβ2 integrin-expressing cells. The studied cells were PMNs (5A, 5B, 5C), αMβ2 L-cell transfectants (5D), non-transfectants (5D), and LAD-1 cells (5D). PMNs were in resting state or stimulated with PMA (5A, 5C) or C5a or TNFα (5B) before the binding experiment to proMMP-9 or its domains. Cells were also pretreated with each peptide (50 μM), antibody (20 μg/ml) or the αM I domain as indicated. Unbound cells were removed by washing and the number of adherent cells was quantitated by a phosphatase assay. The experiment was repeated three times with similar results.
MMP-9 proteins (200 nM in PBS) were coated at +4° C. for 16 h and the microtiter wells were blocked with 3% BSA in PBS for 1 h at room temperature. The αMβ2-integrin L-cell transfectants and PMNs (1×10^5 cells/well) were suspended in RPMI medium supplemented with 2 mM MgCl2 and 0.1% BSA and activated with PMA (20 nM) for 20 min, or with C5a (50 nM) or TNF-α (10 nM) for 4 h at +37° C. The L926 wild type and LAD-1 cells were used as controls. The cells were treated with the indicated antibody (20 μg/ml) or peptide (50 μM) at +37° C. for 30 min, washed twice with serum-free medium and incubated in the microtiter wells at +37° C. for 30 min. The wells were washed with PBS, and the number of adherent cells was quantitated by a phosphatase assay (25).

THP-1 cells [2] = assay: Effect of peptides on gelatinase release from THP-1 cells (gelatin zymography); assay type: cell-based, human; conditions: phorbol ester-activated cells; peptides 200 μM; 16 h; FIG. 6D
Procedure: (§3) FIG. 6A to 6D. Blockage of PMN and THP-1 cell migration in vitro by gelatinase and β2 integrin inhibitors. PMNs (1×10^5 in 100 μl) were applied on the LLG-C4-GST or GST coated surface (6A) or HMEC monolayer (6B) in the absence or presence of peptides (200 μM) or antibodies (20 μg/ml) as indicated. PMNs were stimulated with 20 nM PMA (6A), HMECs with […] or 10 ng/ml TNFα or left untreated (6B). THP-1 cells (5×10^4 in 100 μl) were stimulated with 50 nM PMA and applied on the coated surfaces together with each peptide (200 μM) (6C). The cells migrated through transwell filters were stained and counted microscopically. All experiments were repeated at least twice. (6D) Phorbol ester-activated THP-1 cells (5×10^4 in 100 μl) were incubated for 16 h at +37° C. in the presence or absence of peptides as indicated. The conditioned medium was analyzed by gelatin zymography.
THP-1 cells (50 000/100 μl) were incubated in serum-free RPMI for 16 h in the presence or absence of peptides (200 μM) as described in the text The supernatants from THP-1 cells and mouse intraperitoneal fluid were analysed by gelatin zymography. Gelatinolytic activity was quantified by densitometric scanning.

[3] = tested on: intraperitoneal accumulation of PMNs; assay: Mouse model of thioglycolate-induced peritonitis; assay type: in vivo; conditions: for prevention of thioglycolate-induced increase in gelatinase levels in intraperitoneal fluid (zymography): DDGW 0.1, HFDDDE 0.2, DFEDHD 0.2 mg per mouse intravenously, FIG. 7D; for inhibition of intraperitoneal accumulation of PMNs: intravenous tail injection, 3 h after thioglycolate, FIG. 7A
Procedure: (7A) Mice were injected with thioglycolate or PBS intraperitoneally. The peptides were applied intravenuously at the amounts indicated (A). After 3 h, the intraperitoneal leukocytes were harvested and counted. […] (*) indicates statistical significant difference (p<0.001). The experiment was repeated at least 3 times. The infiltrated neutrophils of mice treated with thioglycolate (7B) or PBS (7C) were stained with anti-MMP-9 and anti-αM, as described in the FIG. 3 legend. Fluorescence was studied by confocal microscopy. Bars: 9.1 μm and […], respectively.
(7D) Gelatinolytic activity of the supernatants from the peritoneal cavities of mice collected as in (7A). Lanes 1-4: samples are from thioglycolate-treated mice; lane 5: a sample from PBS-treated mouse. DDGW, HFDDDE, and DFEDHD were injected intravenously at doses of 0.1, 0.2 and 0.2 mg per mouse. The arrows show proMMP-9 dimer, proMMP-9 and proMMP-2. The experiment was repeated three times with similar results.
Balb/c mice at the age of 31-32 weeks were injected intraperitoneally with 3% (w/v) thioglycolate in sterile saline (32). Peptides ([…] in 100 μl) were introduced intravenously through the tail vein. Animals were euthanized after 3 h and the peritoneal cells were harvested by injecting 10 ml of sterile PBS through the peritoneal wall. Red blood cells present in the lavage fluid were removed by hypotonic lysis. Cells were centrifuged and resuspended in 1 ml of sterile 0.25% BSA/Krebs-Ringer. The supernatants were also collected and analysed by gelatin zymography. The number of neutrophils was determined following staining with 0.1% crystal violet and using a light microscope equipped with a ×100 objective. For immunofluorescence staining, cells were allowed to bind to poly-L-lysine coated cover slips, fixed with 2.5% paraformaldehyde in PBS at +4° C. for 30 min followed by several washings. The Fc receptors were blocked in the presence of 20% of rabbit serum and 3% BSA in PBS. The cells were then incubated with anti-MMP-9 polyclonal and αM monoclonal (MCA74) antibodies for 30 min. After washing with PBS, the secondary antibodies, rhodamine (TRITC)-conjugated anti-rabbit or FITC-conjugated anti-rat (Fab′)2 were incubated for another 30 min. The samples were examined with a confocal microscope. The animal studies were approved by an ethical committee of Helsinki University.

PMNs [4] = assay: PMN transwell migration on LLG-C4-GST coated filters; assay type: cell-based, human; conditions: LLG-C4-GST substratum; peptides 200 μM, antibodies 20 μg/ml; 20 nM PMA; FIG. 6A
Procedure: as §3
(§4) Cell migration was conducted using Costar 24-transwell migration chambers with a 3 μm pore size for PMNs and 8 μm for THP-1 cells. To study β2 integrin-directed migration, the chamber membrane was coated on both sides with LLG-C4-GST integrin ligand (40 μg/ml) or GST as a control and blocked with 10% serum-containing medium (16). […] The non-migrated cells were removed from the upper surface by a cotton swab and the cells that had traversed the filters were stained with crystal violet and counted.

PMNs [5] = assay: PMN transendothelial migration through HMEC monolayer; assay type: cell-based, human; conditions: chemotaxis with C5a or TNF-α, peptides 200 μM, antibodies 20 μg/ml, FIG. 6B
Procedure: as §3, §4

THP-1 cells [6] = assay: THP-1 cell migration through LLG-C4-GST coated transwell filters; assay type: cell-based, human; conditions: LLG-C4GST coated filters; 50 nM PMA; peptides 200 μM; 16 h; FIG. 6C
Procedure: as §3, §4

MMP-9 catalytic domain = assay: Binding to the MMP-9 catalytic domain (unpublished results)
Chain of MMP-9 catalytic domain (P14780 107-444 limits assumed): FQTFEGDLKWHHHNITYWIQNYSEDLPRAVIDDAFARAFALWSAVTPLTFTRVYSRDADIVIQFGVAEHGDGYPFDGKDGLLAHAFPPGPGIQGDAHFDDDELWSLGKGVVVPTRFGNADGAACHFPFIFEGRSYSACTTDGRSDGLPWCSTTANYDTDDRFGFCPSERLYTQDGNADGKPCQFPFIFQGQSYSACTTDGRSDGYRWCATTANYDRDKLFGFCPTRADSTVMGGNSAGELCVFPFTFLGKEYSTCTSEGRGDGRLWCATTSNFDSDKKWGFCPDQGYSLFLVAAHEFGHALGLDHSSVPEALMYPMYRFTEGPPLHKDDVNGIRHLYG

[7] = tested on: leukocyte primary adhesion to ICAM-1, fibrinogen or LLG-C4GST; assay: Leukocyte primary adhesion to ICAM-1, fibrinogen or LLG-C4GST; assay type: cell-based
THP-1 cells [8] = conditions: FI 2003 0923; cited from earlier work

competition with αM I domain binding to proMMP-8 (proMMP-8 (Homo sapiens)) | competition with αM I domain binding to proMMP-9 (proMMP-9 (Homo sapiens)) | inhibition of proMMP-9 binding to the αM I domain (in words) (αM I domain) | inhibition of PMN adherence on proMMP-9 (PMNs [1]) | Molecule | inhibition of intraperitoneal accumulation of PMNs [3] | further results
did not compete | did not compete | – | – | fibrinogen | – | –
– | – | without effect | no effect | ADGACILWMKKGWCGAAG [control peptide for DDGW] | no effect | –
did not compete | did not compete | – | – | ICAM-1: intracellular adhesion molecule 1, β2 integrin ligand used as competitor (protein, UniProt P05362 28-532, looked up) Intercellular adhesion …: QTSVSPSKVILPRGGSVLVTCSTSCDQPKLLGIETPLPKKELLLPGNNRKVYELSNVQEDSQPMCYSNCPDGQSTAKTFLTVYWTPERVELAPLPSWQPVGKNLTLRCQVEGGAPRANLTVVLLRGEKELKREPAVGEPAEVTTTVLVRRDHHGANFSCRTELDLRPQGLELFENTSAPYQLQTFVLPATPPQLVSPRVLEVDTQGTVVCSLDGLFPVSEAQVHLALGDQRLNPTVTYGNDSFSAKASVSVTAEDEGTQRLTCAVILGNQSQETLQTVTIYSFPAPNVILTKPEVSEGTEVTVKCEAHPRAKVTLNGVPAQPLGPRAQLLLKATPEDNGRSFSCSATLEVAGQLIHKNQTRELRVLYGPRLDERDCPGNWTWPENSQQTPMCQAWGNPLPELKCLKDGTFPLPIGESVTVTRDLEGTYLCRARSTQGEVTRKVTVNVLSPRYEIVIITVVAAAVIMGTAGLSTYLYNRQRKIKKYRLQQAQKGTPMKPNTQATPP | – | –

Second part, the molecule before the results:

Molecule | competition with αM I domain binding to proMMP-8 (proMMP-8 (Homo sapiens)) | competition with αM I domain binding to proMMP-9 (proMMP-9 (Homo sapiens)) | inhibition of proMMP-9 binding to the αM I domain (in words) (αM I domain) | inhibition of PMN adherence on proMMP-9 (PMNs [1]) | inhibition of intraperitoneal accumulation of PMNs [3] | further results
DFEDHD | – | – | inactive | no effect | no effect | release of proMMP-9 from THP-1 cells (THP-1 cells [2]): did not induce; prevention of thioglycolate-induced increase in gelatinase levels in intraperitoneal fluid (zymography) [3]: not
CTITHWGFTLC [CTT] | – | – | – | inhibited | – | inhibition of migration of PMA-stimulated PMNs (PMNs [4]): worked similarly; inhibition of PMN transendothelial migration (PMNs [5]): inhibition; inhibition of THP-1 migration (THP-1 cells [6]): inhibited; binding to the MMP-9 catalytic domain (MMP-9 catalytic domain): binds
HFDDDE [HFDDDE] | – | – | – | – | – | IC50 (αM I domain; read-out: inhibition of proMMP-9 binding to the αM I domain, IC50): 20 µM
ADGACILWMDDGWCGAAG | inhibitable | inhibitable | equally potent | inhibited | inhibited | inhibition of migration of PMA-stimulated PMNs (PMNs [4]): worked similarly; inhibition of PMN transendothelial migration (PMNs [5]): inhibition; inhibition of THP-1 migration (THP-1 cells [6]): inhibited; activity on intraperitoneal PMN accumulation ([3]; 5 μg given per mouse, intravenous): active; prevention of thioglycolate-induced increase in gelatinase levels in intraperitoneal fluid (zymography) [3]: prevented the increase; effective dose ([3]; corresponding to 5 μg given per mouse): 0.1 mg/kg mouse tissue; inhibition of leukocyte primary adhesion to ICAM-1, fibrinogen or LLG-C4GST [7]: unable to inhibit; release of proMMP-9 from THP-1 cells (previous studies) (THP-1 cells [8]): can release proMMP-9
